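Protocol summary: plate cells (96-well), add compound at 5 concentrations, incubate 48 h, interpolate endpoints linearly. GI50 marks 50% less growth.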 The source made the active and inactive calls. No stated cut-off is given here; in the data, active = GI50 up to about 1.1 µM and inactive = higher.
Experiments:
Assay in all cases: NCI-60 cell line screen, 48 h
IGROV-1 = system: IGROV-1
CAKI-1 = system: CAKI-1
NCI-H522 = system: NCI-H522
OVCAR-3 = system: OVCAR-3
KM12 = system: KM12
MDA-MB-435 = system: MDA-MB-435
SNB-75 = system: SNB-75
SF-268 = system: SF-268
HCT-116 = system: HCT-116
UACC-62 = system: UACC-62
TK-10 = system: TK-10
PC-3 = system: PC-3
BT-549 = system: BT-549
SK-OV-3 = system: SK-OV-3
HL-60 = system: HL-60
EKVX = system: EKVX
MDA-MB-231 = system: MDA-MB-231
T47D = system: T47D
SK-MEL-2 = system: SK-MEL-2

SMILES | GI50 (IGROV-1) | GI50 (CAKI-1) | GI50 (NCI-H522) | GI50 (OVCAR-3) | GI50 (KM12) | GI50 (MDA-MB-435) | GI50 (SNB-75) | GI50 (SF-268) | GI50 (HCT-116) | GI50 (UACC-62) | GI50 (TK-10) | GI50 (PC-3) | GI50 (BT-549) | GI50 (SK-OV-3) | GI50 (HL-60) | GI50 (EKVX) | GI50 (MDA-MB-231) | GI50 (T47D) | GI50 (SK-MEL-2)
CC1=C2c3ccccc3N(S(=O)(=O)c3ccccc3)[C@H]2[C@H](C(=O)N2C3CC4CC[C@@]3(CS2(=O)=O)C4(C)C)CC1 (some centres undefined) | 59.4 µM (inactive) | 11.2 µM (inactive) | 10.8 µM (inactive) | 17 µM (inactive) | 49.5 µM (inactive) | 56.5 µM (inactive) | 0.635 µM (active) | 17.9 µM (inactive) | 11.7 µM (inactive) | 9.55 µM (inactive) | 43.9 µM (inactive) | 8.67 µM (inactive) | 8.28 µM (inactive) | 22.1 µM (inactive) | 0.641 µM (active) | 56.6 µM (inactive) | > 100 µM (inactive) | 10.6 µM (inactive) | 
COc1ccc(CN2C(=O)CCC/C=C\[C@H]2CI)cc1 | 15.6 µM (inactive) | 10.3 µM (inactive) | 12.7 µM (inactive) | 11.6 µM (inactive) | 11 µM (inactive) | 12.7 µM (inactive) | 2.41 µM (inactive) | 13.4 µM (inactive) | 11.7 µM (inactive) | 10.8 µM (inactive) | 12.5 µM (inactive) | 8.07 µM (inactive) | 19.5 µM (inactive) | 16 µM (inactive) |  | 10.7 µM (inactive) | 11 µM (inactive) | 0.286 µM (active) | 11 µM (inactive)
CCOc1ccc(/C=C2/C(=O)N/C(=N\C(C)=O)N2C)cc1 | > 100 µM (inactive) | > 100 µM (inactive) |  | > 100 µM (inactive) | > 100 µM (inactive) | > 100 µM (inactive) | > 100 µM (inactive) | > 100 µM (inactive) | > 100 µM (inactive) | > 100 µM (inactive) | > 100 µM (inactive) |  | > 100 µM (inactive) | > 100 µM (inactive) | 17.9 µM (inactive) | 54.2 µM (inactive) | > 100 µM (inactive) | > 100 µM (inactive) | > 100 µM (inactive)
O=C(/C=C/c1cc2ccccc2o1)N1CCN(c2ccccn2)CC1 | 84.1 µM (inactive) | > 100 µM (inactive) | 28 µM (inactive) | 62.7 µM (inactive) | 87.5 µM (inactive) | > 100 µM (inactive) |  | > 100 µM (inactive) | 85.3 µM (inactive) | 86.7 µM (inactive) | 79.6 µM (inactive) | 50.4 µM (inactive) | > 100 µM (inactive) | > 100 µM (inactive) | 40.7 µM (inactive) | 95.5 µM (inactive) | 90.2 µM (inactive) | 44.3 µM (inactive) | > 100 µM (inactive)
O=C(Cc1ccccc1)NCCCN(CCCCN(CCCNC(=O)Cc1ccccc1)C(=O)OCc1ccccc1)C(=O)OCc1ccccc1 | > 100 µM (inactive) | 4.74 µM (inactive) | 1.42 µM (inactive) | > 100 µM (inactive) | > 100 µM (inactive) | > 100 µM (inactive) |  | > 100 µM (inactive) | > 100 µM (inactive) | > 100 µM (inactive) | > 100 µM (inactive) | 7.45 µM (inactive) | > 100 µM (inactive) | > 100 µM (inactive) |  | > 49.8 µM (inactive) | > 100 µM (inactive) | > 36.4 µM (inactive) | > 100 µM (inactive)
O=C(O)c1ccccc1/C=C1\Cc2cc3c(cc2C1=O)CCC3 | 23.6 µM (inactive) |  | 18.9 µM (inactive) | 31.2 µM (inactive) | 19.2 µM (inactive) | 12.7 µM (inactive) | 3.57 µM (inactive) | 35.3 µM (inactive) | 27.9 µM (inactive) | 16.9 µM (inactive) | 17.8 µM (inactive) |  | 56.9 µM (inactive) | 36.2 µM (inactive) | 6.59 µM (inactive) | 32.1 µM (inactive) | 20.3 µM (inactive) | 9.23 µM (inactive) | 23.4 µM (inactive)
C=CCNC(=O)NC1=CSC2=NC(=O)C3(NN12)c1ccccc1-c1ccccc13 | > 10 µM (inactive) | > 10 µM (inactive) | > 10 µM (inactive) |  | > 10 µM (inactive) | > 10 µM (inactive) | > 10 µM (inactive) | > 10 µM (inactive) | > 10 µM (inactive) | > 10 µM (inactive) | > 10 µM (inactive) | > 10 µM (inactive) | > 10 µM (inactive) | > 10 µM (inactive) | > 10 µM (inactive) | > 10 µM (inactive) | > 10 µM (inactive) | > 10 µM (inactive) | 
Cc1ccc(S(=O)(=O)NCCCCC(N)C(=O)O)cc1 (centres undefined) | > 100 µM (inactive) | > 100 µM (inactive) | > 100 µM (inactive) | > 100 µM (inactive) | > 100 µM (inactive) | > 100 µM (inactive) | > 100 µM (inactive) | > 100 µM (inactive) | > 100 µM (inactive) | > 100 µM (inactive) |  | > 100 µM (inactive) | > 100 µM (inactive) | > 100 µM (inactive) |  | > 100 µM (inactive) | > 100 µM (inactive) | > 100 µM (inactive) | 
Cc1c2c(n(Cc3ccccn3)c1C)NN=C(C#N)S2(=O)=O | > 100 µM (inactive) | > 100 µM (inactive) | > 100 µM (inactive) | > 100 µM (inactive) | > 100 µM (inactive) | > 100 µM (inactive) | > 100 µM (inactive) | > 100 µM (inactive) | > 100 µM (inactive) | > 100 µM (inactive) | > 100 µM (inactive) | > 100 µM (inactive) | > 100 µM (inactive) | > 100 µM (inactive) |  | > 100 µM (inactive) | > 100 µM (inactive) | > 100 µM (inactive) | > 100 µM (inactive)
CC(=O)N1CCOC12N=NC(C)(C)O2 (centres undefined) | > 100 µM (inactive) | > 100 µM (inactive) | > 100 µM (inactive) | > 100 µM (inactive) | > 100 µM (inactive) | > 100 µM (inactive) | > 100 µM (inactive) | > 100 µM (inactive) | > 100 µM (inactive) | > 100 µM (inactive) | > 100 µM (inactive) | > 100 µM (inactive) | > 100 µM (inactive) | > 100 µM (inactive) |  | > 100 µM (inactive) | > 100 µM (inactive) | > 100 µM (inactive) | > 100 µM (inactive)
Cc1ccc(C)n2c1nc1cc3ccccc3cc12 | 23.1 µM (inactive) |  |  | 25.1 µM (inactive) | 21.1 µM (inactive) | 44.8 µM (inactive) | 17 µM (inactive) | 64 µM (inactive) | 15.3 µM (inactive) | 18.8 µM (inactive) | 15.5 µM (inactive) | 32.4 µM (inactive) | 25.6 µM (inactive) | 32.4 µM (inactive) | 53.8 µM (inactive) | 64.6 µM (inactive) |  | 11.1 µM (inactive) | 
CC1=NN(c2nc(N)nc(CF)n2)C(C)(C)C1 | > 100 µM (inactive) | > 100 µM (inactive) |  |  | > 100 µM (inactive) | > 100 µM (inactive) | > 100 µM (inactive) | > 100 µM (inactive) | > 100 µM (inactive) | > 100 µM (inactive) | > 100 µM (inactive) | > 100 µM (inactive) | > 100 µM (inactive) | > 100 µM (inactive) | > 100 µM (inactive) | > 100 µM (inactive) | > 100 µM (inactive) | > 100 µM (inactive) | > 100 µM (inactive)
CC1(C)O[C@@H]2[C@@H](COC(=O)c3ccccc3)C[C@@H](C#N)[C@@H]2O1 | > 100 µM (inactive) |  | > 100 µM (inactive) | > 100 µM (inactive) | > 100 µM (inactive) | > 100 µM (inactive) | > 100 µM (inactive) | > 100 µM (inactive) | > 100 µM (inactive) | > 100 µM (inactive) | > 100 µM (inactive) | > 100 µM (inactive) | > 100 µM (inactive) | > 100 µM (inactive) | > 100 µM (inactive) |  | > 100 µM (inactive) | > 100 µM (inactive) | 
CCOC(=O)Cn1nnc2ccc(Nc3nc4ccccc4nc3C(=O)OCC)cc21 | > 100 µM (inactive) | > 100 µM (inactive) | 39.7 µM (inactive) | > 100 µM (inactive) | > 100 µM (inactive) | > 100 µM (inactive) | 18.5 µM (inactive) | 27.2 µM (inactive) | > 100 µM (inactive) | 65.3 µM (inactive) | 45.1 µM (inactive) | > 100 µM (inactive) | 73.8 µM (inactive) | 59 µM (inactive) | > 100 µM (inactive) | > 100 µM (inactive) |  | > 100 µM (inactive) | > 100 µM (inactive)
COC(=O)C1CC2(CCC1=O)Cc1ccccc1C2=O (centres undefined) | > 100 µM (inactive) | > 100 µM (inactive) | 67.8 µM (inactive) |  | > 100 µM (inactive) |  | > 100 µM (inactive) | > 100 µM (inactive) | 87.7 µM (inactive) | > 100 µM (inactive) | > 100 µM (inactive) | > 100 µM (inactive) | > 100 µM (inactive) | > 100 µM (inactive) | > 100 µM (inactive) | 89.5 µM (inactive) | > 100 µM (inactive) | > 100 µM (inactive) | > 100 µM (inactive)
CCN(CC)CCNc1ccc2ncn3c4c(OC)ccc(OC)c4c(=O)c1c23 | > 10 µM (inactive) | 86.5 µM (inactive) | 15.7 µM (inactive) | 30.3 µM (inactive) | 9.16 µM (inactive) | > 10 µM (inactive) | 10.6 µM (inactive) | 3.24 µM (inactive) | 0.587 µM (active) | 22.6 µM (inactive) | > 100 µM (inactive) | > 10 µM (inactive) | > 10 µM (inactive) | 19.1 µM (inactive) |  | 15.3 µM (inactive) | 12 µM (inactive) | > 100 µM (inactive) | 

Source: ChEMBL document CHEMBL1201862, “PubChem BioAssay data set” (2004)
